Test results reported in patent US8772323B2, “Benzoxazole- and tetrahydrobenzoxazole-substituted pyridazinones as GPR119 agonists” (Boehringer Ingelheim International GmbH, priority 2010, dated 2014).

Target: human GPR119 (Homo sapiens (Human), UniProt Q8TDV5)
Assay: AlphaScreen cAMP assay in Min-6/hGPR119 cells (GPR119 activation, intracellular cAMP)
Assay type: cell-based
Settings: MIN6 cells stably transfected with human GPR119; 45 minutes' incubation at RT; AlphaScreen cAMP Assay Kit
Outline: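 MIN6 cells stably expressing human GPR119 plated 10000 cells/well and held 24 h at 37° C. Compounds applied in stimulating buffer, pH 7.4, with 0.5 mM IBMX, 0.1% BSA, 1% DMSO final, for 45 min at RT. Intracellular cAMP read by AlphaScreen.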

human GPR119, sequence (Q8TDV5 whole entry): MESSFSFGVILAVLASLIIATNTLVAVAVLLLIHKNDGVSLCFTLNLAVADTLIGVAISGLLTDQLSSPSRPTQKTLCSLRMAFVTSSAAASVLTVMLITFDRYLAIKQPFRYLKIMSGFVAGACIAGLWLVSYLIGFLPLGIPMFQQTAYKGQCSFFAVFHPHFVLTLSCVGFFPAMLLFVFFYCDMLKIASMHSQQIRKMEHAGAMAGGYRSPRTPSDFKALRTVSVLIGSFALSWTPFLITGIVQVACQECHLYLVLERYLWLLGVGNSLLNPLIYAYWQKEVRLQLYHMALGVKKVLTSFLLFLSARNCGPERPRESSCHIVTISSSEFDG

## CCC1CC(=O)NN=C1c1ccc2nc(-c3ccc(OC[C@@H]4CCCN4C(C)C)cc3)oc2c1 (some centres unmarked) [Example 240, 5-ethyl-6-{2-[4-(1-isopropyl-5-pyrrolidin-2-yl-methoxy)-phenyl]-benzoxazol-6-yl}-4,5-dihydro-2H-pyridazin-3-one]
  EC50: 186 nM

## CC[C@H]1C(=O)NN=C(c2ccc3nc(-c4ccccc4)oc3c2)[C@H]1C [Example 127, (4R,5S)-4-ethyl-5-methyl-6-(2-phenyl-1,3-benzoxazol-6-yl)-2,3,4,5-tetrahydropyridazin-3-one]
  EC50: 2590 nM

## CC[C@@H]1CC(=O)NN=C1c1ccc2nc(-c3ccccc3)oc2c1 [Example 31, (R)-5-ethyl-6-(2-phenyl-benzoxazol-6-yl)-4,5-dihydro-2H-pyridazin-3-one]
  EC50: 66 nM

## O=C1NN=C(c2ccc3nc(-c4ccccc4)oc3c2)C2CC12 (centres unmarked) [Example 5, 5-(2-phenyl-benzoxazol-6-yl)-3,4-diaza-bicyclo[4.1.0]hept-4-en-2-one]
  EC50: 243 nM

## CCC1CC(=O)NN=C1c1ccc2nc(-c3ccc(OC4CCCCCN4C)cc3)oc2c1 (centres unmarked) [Example 234, 5-ethyl-6-{2-[4-(1-methyl-2-azepan-2-yloxy)-phenyl]-benzoxazol-6-yl}-4,5-dihydro-2H-pyridazin-3-one]
  EC50: 306 nM

## CCC[C@H]1C(=O)NN=C(c2ccc3nc(-c4ccc(C)s4)oc3c2)[C@@H]1C (relative stereo) [Example 184, trans-5-methyl-6-[2-(5-methyl-thiophen-2-yl)-benzoxazol-6-yl]-4-propyl-4,5-dihydro-2H-pyridazin-3-one]
  EC50: 53 nM

## CCC1CC(=O)NN=C1c1ccc2nc(-c3ccc(OCCN(CC(C)C)CC(C)C)cc3)oc2c1 (centres unmarked) [Example 160, 6-{2-[4-(2-diisobulylamino-ethoxy)-phenyl]-benzoxazol-6-yl}-5-ethyl-4,5-dihydro-2H-pyridazin-3-one]
  EC50: 124 nM

## CCC1CC(=O)NN=C1c1ccc2nc(-c3cccc(OCCN(CC)C(C)C)c3)oc2c1 (centres unmarked) [Example 218]
  EC50: 840 nM

## CCC[C@@H]1C(=O)NN=C(c2ccc3nc(-c4ccc(OCc5ccccc5)cc4)oc3c2)[C@H]1C (relative stereo) [Example 200, trans-6-[2-(4-benzoxy-phenyl)-benzoxazol-6-yl]-5-methyl-4-propyl-4,5-dihydro-2H-pyridazin-3-one]
  EC50: 52 nM

## CC1CC(=O)NN=C1c1ccc2nc(-c3ccccc3)oc2c1 (centres unmarked) [Example 82, 5-methyl-6-(2-phenyl-benzoxazol-6-yl)-4,5-dihydro-2H-pyridazin-3-one]
  EC50: 189 nM

## CCC1CC(=O)NN=C1c1ccc2nc(-c3cccc(OCCN4CCCCC4)c3)oc2c1 (centres unmarked) [Example 148, 5-ethyl-6-{2-[3-(2-piperidin-1-yl-ethoxy)-phenyl]-benzoxazol-6-yl}-4,5-dihydro-2H-pyridazin-3-one]
  EC50: 1560 nM

## CCC1CC(=O)NN=C1c1ccc2nc(-c3ccc(OCC(=O)OC(C)(C)C)cc3)oc2c1 (centres unmarked) [Example 66, tert-butyl {4-[6-(4-ethyl-6-oxo-1,4,5,6-tetrahydro-pyridazin-3-yl)-benzoxazol-2-yl]-phenoxy}-acetate]
  EC50: 112 nM

## CCCOc1ccc(-c2nc3ccc(C4=NNC(=O)CC4CC)cc3o2)cc1 (centres unmarked) [Example 52, 5-ethyl-6-[2-(4-propoxy-phenyl)-benzoxazol-6-yl]-4,5-dihydro-2H-pyridazin-3-one]
  EC50: 189 nM

## CCC1CC(=O)NN=C1c1ccc2nc(-c3ccc(OCc4cccs4)cc3)oc2c1 (centres unmarked) [Example 51, 5-ethyl-6-{2-[4-(thiophen-2-ylmethoxy)-phenyl]-benzoxazol-6-yl}-4,5-dihydro-2H-pyridazin-3-one]
  EC50: 158 nM

## C=CCC1CC(c2ccc3nc(-c4ccccc4)oc3c2)=NNC1=O (centres unmarked) [Example 7, 4-allyl-6-(2-phenyl-benzoxazol-6-yl)-4,5-dihydro-2H-pyridazin-3-one]
  EC50: 892 nM

## COC(=O)c1cccc(-c2nc3ccc(-c4n[nH]c(=O)cc4C)cc3o2)c1 [Example 254, methyl 3-[6-(4-methyl-6-oxo-1,6-dihydro-pyridazin-3-yl)-benzoxazol-2-yl]-benzoate]
  EC50: 8950 nM

## CCC[C@H]1C(=O)NN=C(c2ccc3nc(-c4ccc(Cl)cc4)oc3c2)[C@@H]1C (relative stereo) [Example 185, trans-6-[2-(4-chloro-phenyl)-benzoxazol-6-yl]-5-methyl-4-propyl-4,5-dihydro-2H-pyridazin-3-one]
  EC50: 142 nM

## O=C1NN=C(c2ccc3nc(-c4ccc(CN5CCOCC5)cc4)oc3c2)C2CC12 (centres unmarked) [Example 22, 5-[2-(4-morpholin-4-ylmethyl-phenyl)-benzoxazol-6-yl]-3,4-diaza-bicyclo[4.1.0]hept-4-en-2-one]
  EC50: 1750 nM

## O=C1CCC(c2ccc3nc(N4CCCCC4)oc3c2)=NN1 [Example 118, 6-(2-piperidin-1-yl-benzoxazol-6-yl)-4,5-dihydro-2H-pyridazin-3-one]
  EC50: 3740 nM

## CCC1CC(=O)NN=C1c1ccc2nc(-c3ccc(OCCN4CCN(C(=O)OC(C)(C)C)CC4)cc3)oc2c1 (centres unmarked) [Example 165, terl-butyl 4-(2-{4-[6-(4-ethyl-6-oxo-1,4,5,6-tetrahydro-pyridazin-3-yl)-benzoxazol-2-yl]-phenoxy}-ethyl)-piperazine-1-carboxylate]
  EC50: 118 nM

## CCC[C@H]1C(=O)NN=C(c2ccc3nc(-c4ccco4)oc3c2)[C@@H]1C [Example 188, trans-6-(2-uran-2-yl-benzoxazol-6-yl)-5-methyl-4-propyl-4,5-dihydro-2H-pyridazin-3-one]
  EC50: 83 nM

## CC1CC(=O)NN=C1c1ccc2nc(-c3cccc(O)c3)oc2c1 (centres unmarked) [Example 38, 6-[2-(3-hydroxy-phenyl)-benzoxazol-6-yl]-5-methyl-4,5-dihydro-2H-pyridazin-3-one]
  EC50: 890 nM

## CC[C@@H]1CC(=O)NN=C1c1ccc2nc(-c3ccc(OC)cc3)oc2c1 [Example 190, (5R)-5-ethyl-6-[2-(4-methoxyphenyl)-1,3-benzoxazol-6-yl]-2,3,4,5-tetrahydropyridazin-3-one]
  EC50: 79 nM

## CCC1CC(=O)NN=C1c1ccc2nc(-c3ccc(OCc4ccccn4)cc3)oc2c1 (centres unmarked) [Example 47, 5-ethyl-6-{2-[4-(pyridin-2-ylmethoxy)-phenyl]-benzoxazol-6-yl}-4,5-dihydro-2H-pyridazin-3-one]
  EC50: 226 nM

## CCC1CC(=O)NN=C1c1ccc2nc(-c3ccc(C(C)OC)cc3)oc2c1 (centres unmarked) [Example 180, 5-ethyl-6-{2-[4-(1-methoxy-ethyl)-phenyl]-benzoxazol-6-yl}-4,5-dihydro-2H-pyridazin-3-one]
  EC50: 290 nM

## O=C1NN=C(c2ccc3nc(-c4ccc(F)cc4)oc3c2)C2CC12 (centres unmarked) [Example 18, 5-[2-(4-fluoro-phenyl)-benzoxazol-6-yl]-3,4-diaza-bicyclo[4.1.0]hept-4-en-2-one]
  EC50: 153 nM

## CCC1CC(=O)NN=C1c1ccc2nc(-c3ccc(OCCOC)cc3)oc2c1 (centres unmarked) [Example 214, 5-ethyl-6-{2-[4-(2-methoxy-ethoxy)-phenyl]-benzoxazol-6-yl}-4,5-dihydro-2H-pyridazin-3-one]
  EC50: 122 nM

## CCC1CC(=O)NN=C1c1ccc2nc(-c3ccc(OC)cc3)oc2c1 (centres unmarked) [Example 104, 5-ethyl-6-[2-(4-methoxy-phenyl)-benzoxazol-6-yl]-4,5-dihydro-2H-pyridazin-3-one]
  EC50: 120 nM

## CCC[C@@H]1C(=O)NN=C(c2ccc3nc(-c4ccccc4)oc3c2)[C@H]1C (relative stereo) [Example 128, trans-5-methyl-6-(2-phenyl-benzoxazol-6-yl)-4-propyl-4,5-dihydro-2H-pyridazin-3-one]
  EC50: 56 nM

## C[C@@H]1CC(=O)NN=C1c1ccc2nc(-c3ccccc3)oc2c1 [Example 3, (R)-5-methyl-6-(2-phenyl-benzoxazol-6-yl)-4,5-dihydro-2H-pyridazin-3-one]
  EC50: 82 nM

## CCC1CC(=O)NN=C1c1ccc2nc(-c3cccc(OCCN4CCN(C(=O)OC(C)(C)C)CC4)c3)oc2c1 (centres unmarked) [Example 155, tert-butyl 4-(2-{3-[6-(4-ethyl-6-oxo-1,4,5,6-tetrahydro-pyridazin-3-yl)-benzoxazol-2-yl]-phenoxy}-ethyl)-piperazine-1-carboxylate]
  EC50: 7750 nM

## CCC[C@H]1C(=O)NN=C(c2ccc3nc(-c4ccc(OCCN(C(C)C)C(C)C)cc4)oc3c2)[C@H]1C (relative stereo) [Example 169, cis-6-{2-[4-(2-diisopropylamino-ethoxy)-phenyl]-benzoxazol-6-yl}-5-methyl-4-propyl-4,5-dihydro-2H-pyridazin-3-one]
  EC50: 1040 nM

## CCC1CC(=O)NN=C1c1ccc2nc(-c3ccc(O)cc3)oc2c1 (centres unmarked) [Example 37, 5-ethyl-6-[2-(4-hydroxy-phenyl)-benzoxazol-6-yl]-4,5-dihydro-2H-pyridazin-3-one]
  EC50: 636 nM

## CCC1CC(=O)NN=C1c1ccc2nc(-c3ccc(OCC(C)(C)N4CCOCC4)cc3)oc2c1 (centres unmarked) [Example 232, 5-ethyl-6-{2-[4-(2-methyl-2-morpholin-4-yl-propoxy)-phenyl]-benzoxazol-6-yl}-4,5-dihydro-2H-pyridazin-3-one]
  EC50: 69 nM

## CCC1CC(=O)NN=C1c1ccc2nc(-c3cc(C)cs3)oc2c1 (centres unmarked) [Example 97, 5-ethyl-6-[2-(4-methyl-thiophen-2-yl)-benzoxazol-6-yl]-4,5-dihydro-2H-pyridazin-3-one]
  EC50: 225 nM

## O=C1CCC(c2ccc3nc(-c4ccco4)oc3c2)=NN1 [Example 112, 6-(2-furan-2-yl-benzoxazol-6-yl)-4,5-dihydro-2H-pyridazin-3-one]
  EC50: 1320 nM

## CCC1CC(=O)NN=C1c1ccc2nc(-c3ccc(OC(C)CN4CCOCC4)cc3)oc2c1 (centres unmarked) [Example 221, 5-ethyl-6-{2-[4-(1-methyl-2-morpholin-4-yl-ethoxy)-phenyl]-benzoxazol-6-yl}-4,5-dihydro-2H-pyridazin-3-one]
  EC50: 204 nM

## CCC1CC(=O)NN=C1c1ccc2nc(-c3cccc(OC(C)C)c3)oc2c1 (centres unmarked) [Example 100, 5-ethyl-6-[2-(3-isopropoxy-phenyl)-benzoxazol-6-yl]-4,5-dihydro-2H-pyridazin-3-one]
  EC50: 442 nM
